Tests used:
[1] = rabbit, in vivo, iv
Description: (§2) Rabbits were anesthetized with Ketamine and Nembutal™ and positioned beneath a gamma camera to allow continuous collection of data including a chest and abdomen view. 1 mCi of the test agent as specified below was injected via an ear vein and data collected continuously at 60 second intervals for 60 minutes. Curves were generated by drawing regions of interest over selected tissues and normalizing to counts per minute per pixel.
The time of maximum activity in the liver post injection is "^t max", while "t1/2" is the apparent half life of the clearance curve from ^t max. The latter data is an estimate based on data collected to 60 minutes after administration. This assumes a simple exponential curve with time, although more extensive studies might indicate more components are actually present.

[2] = Scintigraphic imaging of the heart in rabbits; assay type: in vivo, rabbit
Description: (§1) Two rabbits were anesthetized with sodium pentobarbital and injected via an ear vein with 3-8 mCi of ^99m Tc-isonitrile complex. One rabbit was imaged using a gamma camera equipped with a pinhole collimator positioned directly over the chest. Three minute static images were acquired at 5, 10, […], 40, 50 and 60 minutes post injection. A second rabbit was used to investigate the relative whole body distribution of activity for 60 minutes post-injection. Immediately post-injection, 300 thousand count images were acquired in the following sequence of projections: chest, anterior heart, whole body, anterior heart, left lateral whole body, anterior heart, lateral heart, anterior heart.
FIG. 6(a) is a scintigraphic image of a rabbit injected with a complex of ^99m Tc-carboethoxyisopropylisonitrile at 5 minutes after injection, while FIG. 6(b) is a scintigraphic image of the same rabbit at 15 minutes after injection. FIG. 7(a) is a scintigraphic image of a rabbit injected with a complex of ^99m Tc-2-carboethoxyethylisonitrile at 1, 10, 15 and 20 minutes post injection. FIG. 7 (b) is a scintigraphic image of a rabbit injected with the above complex at 31 minutes post-injection. The heart is at (A), the gall bladder at (B) and the site of injection at (C). The interpretation of these images is known to the person of ordinary skill in this field.

[3] = Scintigraphic images in animal and human tests; assay type: in vivo; conditions: for usefulness for imaging the heart: in vivo
Description: Scintigrapic Imaging Procedure in Animals
as §1
Swine were sedated with intramuscular injections of Ketamine and acepromazine, and anesthetized with sodium pentobarbital. The animals were positioned for anterior image acquisition over the chest under a low energy, high resolution collimator and injected with 10-12 mCi ^99m Tc-isonitrile complex via a leg vein. The liver was covered with a lead shield, and three minute images were acquired at 5, 10, 20, 30, 40, 50 and 60 minutes post-injection.
After anesthetization with sodium pentobarbital, dogs were injected with 25 mCi of ^99m Tc and positioned for anterior chest image acquisition using a pinhole collimator. Again, three minute images were obtained at 5, 10, 20, 30, 40, 50 and 60 minutes post-injection.

[4] = rabbit, in vivo
Description: as §2
The complexes were prepared, injected and imaged as described above.

Molecule | t1/2 (apparent half life of the liver clearance curve from tmax) [1] | tmax (time of maximum activity in the liver post injection) [1] | resolution of the apex of the heart ([2]; by 20 minutes after injection, after liver clearance) | resolution of the myocardium ([2]; five minutes after injection) | visualization of the apex of the heart ([2]; initially, background noise from liver uptake) | usefulness for imaging the heart [3] | lung clearance [4] | image quality ([3]; animal and human tests)
[C-]#[N+]C(C)C [CNC(CH3)2 R, R = --H, isopropylisonitrile, reference compound] | 98 min | 5 min |  |  |  |  |  | 
[C-]#[N+]C [CNCH2 R, R = --H, methyl isonitrile, reference compound] | 88 min | 14 min |  |  |  |  |  | 
[C-]#[N+]CC [CNCH(R)CH3, R = --H, ethyl isonitrile, reference compound] | 270 min | 2 min |  |  |  |  |  | 
Hexakis carbomethoxymethylisonitrile Technetium Cation [CNCH2 R, R = --COOCH3] | 37 min | 1 min |  |  |  |  |  | 
^99m TC-hexakis carbo-t-butoxymethylisonitrile technetium [CNCH2 R, R = --COO^t C4 H9] | 25 min | 5 min |  |  |  |  |  | 
^99m Tc-Hexakis-1-carbomethoxyisopropylisonitrile Technetium (I) [CNC(CH3)2 R, R = --COOCH3] | 35 min | 3 min | excellent resolution of the apex | very good to excellent resolution of the myocardium | initially prevents clear visualization of the apex of the heart | particularly useful for imaging the heart | rapid lung clearance | 
^99m Tc-Hexakis-2-carboethoxyethylisonitrile Technetium (I) [CNCH2 CH2 R, R = --COOC2 H5] | 17 min | 2 min |  |  |  | particularly useful for imaging the heart |  | excellent images in both animal and human tests
